This passage reports IC50 and EC50 results from patent publication US11286263B2, “Macrocyclic fluorine substituted indole derivatives” (The Broad Institute, Inc., priority 2017, dated 2022).

Where a name gives a salt, the structure may show the parent alone. Read-outs that look alike come from different tables or passages of the source.

Data set [1] concerns SUDHL5. Put plainly: Antiproliferation assay SUDHL5 (Assay 7). In kind it is cell-based. As to conditions: SUDHL5 cells, CellTiter-Glo, median, read-out: IC50 Antiproli SUDHL5 [M] (median). How it is done: (§1) Assessment of the Anti-Proliferative Effect of Compounds in Different Cell Lines
(§2) The impact of compounds on the proliferation of different cell lines was assessed using the CellTiter-Glo® Luminescent Cell Viability reagent from Promega (G7573).
(§3) In parallel, cells were plated in a reference (day 0) plate for time zero determination.
(§4) Rim wells were excluded. The cells were incubated for 72 h hours in a humidified incubator at 37° C. The day 0 plate was measured by adding 30 μL/well of CTG solution (CellTiter-Glo® Luminescent Cell Viability reagent, Promega G7573) to time zero wells in the reference plate followed by a 10 minutes incubation and luminescence reading at 0.1 ms. using the PHERAstar FS microplate reader (BMG Labtech).
(§5) After 72 h incubation, the treated plates were measured in the same way as the day 0 plate mentioned above.

Data set [2] deals with SUDHL5. The data set can be described thus: Induction of caspase-3/7 activity, SUDHL5 (Assay 4). Type of data set: cell-based. As to conditions: SUDHL5 cells. How it is done:
(§6) Induction of Caspase-3/7 Activity upon Treatment of Cells with Selected Compounds
(§7) The BH3-domain of MCL-1 sequesters pro-apoptotic proteins, thereby inhibiting apoptosis. In contrast, MCL-1 inhibitors are expected to antagonize this effect leading to an increase in apoptosis, which can be determined by measuring the activity of caspase-3/7.
(§8) The activity of caspase-3/7 was determined in DLBCL (Diffuse large B-cell lymphoma) cell lines (SUDHL5 and SUDHL10) upon treatment with different compounds, using the Caspase-Glo® 3/7 reagent from Promega (G8092).
(§9) Rim wells were excluded. The cells were incubated for 3 h hours in a humidified incubator at 37° C.
(§10) For the evaluation of the results, the background measured with “medium-only” was subtracted from all other values. […] The Bella DRC Master Sheet was used to calculate EC50s, with fixed C0=1 and Cl=plateau/max induction for the reference compound.

In a further data set the test system is MV-4-11. The data set can be described thus: Antiproliferation assay MV-4-11 (Assay 7). In kind it is cell-based. Particulars: MV-4-11 cells, CellTiter-Glo, single determinations, read-out: IC50 Antiproli MV-4-11. How it is done: as §1, §2, §3, §4, §5
For data set [3], the system named is SUDHL10. Put plainly: Induction of caspase-3/7 activity, SUDHL10 (Assay 4). Type of data set: cell-based. Particulars: SUDHL10 cells. How it is done: as §6, §7, §8, §9, §10
Another data set deals with AMO-1. Put plainly: Antiproliferation assay AMO-1 (Assay 7). Type of data set: cell-based. As to conditions: AMO-1 cells, CellTiter-Glo, single determinations, read-out: IC50 Antiproli AMO-1. How it is done:
as §1, §2, §3, §4, §5

In another data set the target is MCL-1 (Homo sapiens (Human), UniProt Q07820, K194A/K197A/R201A). Put plainly: Protein-protein interaction assay MCL-1/Noxa BH3 peptide (MCL-1 assay), TR-FRET. As to conditions: MCL-1/Noxa BH3 peptide TR-FRET; median. Type of data set: binding. How it is done:
Protein-Protein Interaction Assay: MCL-1/Noxa BH3 Peptide (MCL-1 Assay)
The dose-dependent inhibition by the compounds described in this invention of the interaction between MCL-1 and the BH3 domain of Noxa (both human) was determined using a steady state binding competition assay with time-resolved fluorescence energy transfer (TR-FRET) readout. For that purpose MCL-1 (amino acids 173-321, N-terminal fused to Maltose Binding Protein (MBP) SEQ ID 1)) and a synthetic Noxa BH3-derived peptide of sequence Biotin-PEG2-PEG2-PAELEVE-Nva-ATQLRRFGDKLNFRQKLL-amide (SEQ ID 2) served as protein receptor and tracer ligand respectively. The MBP-MCL-1 was purchased from Beryllium (Bedford, Mass., USA). The expression and purification of this protein construct has been described elsewhere (DOI:10.1371/journal.pone.0125010). The Noxa BH3-derived peptide can be obtained from e.g. Biosyntan (Berlin, Germany).
In the assay 11 different concentrations of each compound (0.1 nM, 0.33 nM, 1.1 nM, 3.8 nM, 13 nM, 44 nM, 0.15 μM, 0.51 μM, 1.7 μM, 5.9 μM and 20 μM) were typically measured as duplicates in the same microtiter plate. For that, 100-fold concentrated DMSO solutions were prepared by serial dilutions (1:3.4) of a 2 mM stock solution in a clear, 384-well microtiter plate (Greiner Bio-One, Frickenhausen, Germany). From there, 50 nl were transferred in a dark test plate (Greiner Bio-One, Frickenhausen, Germany). The assay was initiated by addition of 2 μl of a 2,5-fold concentrated MBP-MCL-1 solution (usually for a 1 nM end concentration in 5 μl reaction volume) in aqueous assay buffer [50 mM Tris/HCl pH 7, 100 mM sodium chloride (NaCl), 50 mM potassium fluoride (KF), 0.005% Tween-20, 2 mM DTT, 0.1% bovine gamma globulin (BGG)] to the compounds in the assay plate. This was followed by a 10-minute incubation step at 22° C. for pre-equilibration of the putative complex between MBP-MCL-1 and the compounds. After that, 3 μl of a 1.67-fold concentrated solution (in assay buffer) consisting of Noxa BH3-derived peptide (1 nM end concentration) and TR-FRET detection reagents [1.67 nM anti-MBP-Eu cryptate and 1.67 nM streptavidin-XL665 (both from Cisbio Bioassays, Codolet, France)], were added.
The mixture was incubated in the dark for one hour at 22° C. and then overnight at 4° C. The formation of MCL-1/Noxa complexes was determined by measuring the resonance energy transfer of the anti-MBP-Eu-cryptate antibody to the streptavidin-XL665 present in the reaction. For that purpose, the fluorescence emission at 620 nm and 665 nm after excitation at 330-350 nm was measured in a TR-FRET measuring instrument, for instance a Rubystar or a Pherastar (both from BMG Lab Technologies, Offenburg, Germany) or a Viewlux (Perkin-Elmer). The ratio of the emission at 665 nm and at 622 nm was used as indicator of the amount of MCL-1/NOXA complexes present.
The resulting data (ratio) were normalized, taking 0% inhibition as the mean value of control measurements (usually 32 data points) where all reagents were included. In this case 50 nl DMSO were used instead of compounds. A 100% inhibition corresponded to the mean value of control measurements (usually 32 data points) where all reagents except MCL-1 were included. IC50 values were determined by regression analysis based on a 4 parameter equation (minimum, maximum, IC50, Hill; Y=Max+(Min−Max)/(1+(X/IC50)^Hill) using the Screener Software (Genedata).

The subject of data set [4] is SUDHL5. The data set can be described thus: Induction of cytotoxicity, SUDHL5 (Assay 6). As to conditions: read-out: IC50 Cytotox SUDHL5 [M] (median), SUDHL5 cells, 5 h, CellTiter-Glo.
For data set [5], the system named is SUDHL10. Put plainly: Induction of cytotoxicity, SUDHL10 (Assay 6). As to conditions: read-out: IC50 Cytotox SUDHL10 [M] (median), SUDHL10 cells, 5 h, CellTiter-Glo.
For the next data set, the system named is A2780. Put plainly: Antiproliferation assay A2780 (Assay 7). As to conditions: A2780 cells, 72 h, CellTiter-Glo; single determinations; listed as 04; read-out: IC50 Antiproli A2780. Type of data set: cell-based. How it is done:
as §1, §2, §3, §4, §5

MCL-1, sequence (Q07820 whole entry K194A/K197A/R201A, looked up): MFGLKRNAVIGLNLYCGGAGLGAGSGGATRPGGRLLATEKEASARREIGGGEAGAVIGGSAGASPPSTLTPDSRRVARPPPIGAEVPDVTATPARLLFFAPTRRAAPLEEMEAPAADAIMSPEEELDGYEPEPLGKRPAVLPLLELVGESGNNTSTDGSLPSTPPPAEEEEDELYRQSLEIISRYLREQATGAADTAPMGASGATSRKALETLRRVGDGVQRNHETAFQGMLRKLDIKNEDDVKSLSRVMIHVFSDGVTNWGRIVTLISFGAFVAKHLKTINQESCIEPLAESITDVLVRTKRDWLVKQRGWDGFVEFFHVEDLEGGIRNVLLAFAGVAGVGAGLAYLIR

Turning to `CCc1nn(C)c2c1-c1c(F)ccc3c(CCCOc4ccc(F)c5ccccc45)c(C(=O)O)n(c13)CCCCOC2` (racemic) [Example 41, (rac)-12-ethyl-13-fluoro-1-(3-((4-fluoronaphthalen-1-yl)oxy)propyl)-10-methyl-4,5,6,7,9,10-hexahydropyrazolo[4′,3′:9,10][1]oxa[6]azacycloundecino[8,7,6-hi]indole-2-carboxylic acid], the IC50 in the data set on SUDHL5 [1] (Homo sapiens, SU-DHL-5, 72 h) turned out to be 2e-06 M; in the data set with MV-4-11 (Homo sapiens, MV4-11, 72 h), 11 µM; in the data set on MV-4-11 (72 h), 15 µM; in the data set with AMO-1 (72 h), 12.8 µM; in the data set on AMO-1 (Homo sapiens, AMO1, 72 h), 15.2 µM; on MCL-1, 0.002 µM. Further, the IC50 with SUDHL5 [4] (Homo sapiens, SU-DHL-5, 5 h) was 3e-06 M; with SUDHL10 [5] (Homo sapiens, SU-DHL10, 5 h), 7.1e-06 M. Further, the EC50 is 2.2 µM in the data set on SUDHL5 [2] (Homo sapiens, SU-DHL-5, 3 h, Caspase-Glo 3/7, median) and 14 µM with SUDHL10 [3] (Homo sapiens, SU-DHL10, 3 h, Caspase-Glo 3/7, median).
On to `Cc1c2c(nn1C)COCCCCn1c(C(=O)O)c(CCCOc3cccc4ccccc34)c3ccc(F)c-2c31` (single isomer, unassigned; enantiomer 2) [Example 4, 4-fluoro-2,3-dimethyl-7-[3-(naphthalen-1-yloxy)propyl]-2,10,11,12,13,15-hexahydropyrazolo-[4′,3′:9,10][1,6]oxazacycloundecino[8,7,6-hi]indole-8-carboxylic acid-N-ethylethanamine salt (enantiomer 2)], for which the concentration for half-maximal inhibition (IC50) was > 3.3e-05 M in the data set with SUDHL5 [1] (72 h); > 33 µM in the data set on MV-4-11 (72 h, listed as 04); 0.065 µM at MCL-1; > 3.3e-05 M in the data set on SUDHL5 [4]; > 33 µM with A2780. The EC50 in the data set with SUDHL5 [2] (3 h, Caspase-Glo 3/7, median) was > 33 µM.
With `Cc1c2c(nn1C)COCCCCn1c(C(=O)O)c(CCCOc3ccc(F)c4ccccc34)c3ccc(F)c-2c31` (single isomer, unassigned; enantiomer 2) [Example 17, 4-fluoro-7-{3-[(4-fluoronaphthalen-1-yl)oxy]propyl}-2,3-dimethyl-2,10,11,12,13,15-hexahydro-pyrazolo[4′,3′:9,10][1,6]oxazacycloundecino[8,7,6-hi]indole-8-carboxylic acid (enantiomer 2)], the concentration for half-maximal inhibition (IC50) with SUDHL5 [1] (72 h) was 1.1e-05 M; with MV-4-11 (72 h), 20.8 µM; with AMO-1 (72 h), > 33 µM; against MCL-1, 0.06 µM; in the data set on SUDHL5 [4], > 3.3e-05 M; in the data set on SUDHL10 [5], > 3.3e-05 M. For the same molecule, the EC50 with SUDHL5 [2] (3 h, Caspase-Glo 3/7, median) was > 33 µM; in the data set with SUDHL10 [3] (3 h, Caspase-Glo 3/7, median) it was > 33 µM.
As for `CCc1c2c(nn1C)COCCCCn1c(C(=O)O)c(CCCOc3ccc(F)c4ccccc34)c3ccc(F)c-2c31` (single isomer, unassigned; enantiomer 2) [Example 28, 3-ethyl-4-fluoro-7-{3-[(4-fluoronaphthalen-1-yl)oxy]propyl}-2-methyl-2,10,11,12,13,15-hexahydropyrazolo[4′,3′:9,10][1,6]oxazacycloundecino[8,7,6-hi]indole-8-carboxylic acid-N-ethylethanamine salt (enantiomer 2)], the IC50 is 1.2e-05 M with SUDHL5 [1] (72 h); 13.8 µM in the data set with MV-4-11 (72 h); > 33 µM in the data set on AMO-1 (72 h); 0.065 µM against MCL-1; 1.8e-05 M in the data set with SUDHL5 [4]; > 3.3e-05 M with SUDHL10 [5]. In addition, the EC50 is > 33 µM with SUDHL5 [2] (3 h, Caspase-Glo 3/7, median) and > 33 µM in the data set on SUDHL10 [3] (3 h, Caspase-Glo 3/7, median).
For `CCc1nn(C)c2c1-c1c(F)ccc3c(CCCOc4ccc(F)c5ccccc45)c(C(=O)O)n(c13)CCCCOC2` (single isomer, unassigned; enantiomer 2) [Example 43, 3-ethyl-4-fluoro-7-{3-[(4-fluoronaphthalen-1-yl)oxy]propyl}-1-methyl-1,10,11,12,13,15-hexahydropyrazolo[4′,3′:9,10][1,6]oxazacycloundecino[8,7,6-hi]indole-8-carboxylic acid (enantiomer 2)], the concentration for half-maximal inhibition (IC50) in the data set on SUDHL5 [1] (72 h) was 1.5e-05 M; in the data set on MV-4-11 (72 h), 12.5 µM; with AMO-1 (72 h), > 33 µM; against MCL-1, 0.11 µM; in the data set with SUDHL5 [4], > 3.3e-05 M; in the data set with SUDHL10 [5], > 3.3e-05 M. Further, the concentration for a half-maximal effect (EC50) in the data set with SUDHL5 [2] (3 h, Caspase-Glo 3/7, median) is > 33 µM; in the data set with SUDHL10 [3] (3 h, Caspase-Glo 3/7, median), > 33 µM.
